Data from US9365556B2, “3,5-diaminopyrazole kinase inhibitors” (Axikin Pharmaceuticals, Inc., priority 2012, dated 2016).

What was measured:
[1] = target: T1, kinase domain protein of RC kinase (Homo sapiens, UniProt Q56UN5); test: Enzymatic assay for kinase inhibitory activity (Crebtide substrate, LANCE read-out); type: biochemical; conditions: compound at 1 μM
T1 sequence (Q56UN5 1061-1324 limits assumed): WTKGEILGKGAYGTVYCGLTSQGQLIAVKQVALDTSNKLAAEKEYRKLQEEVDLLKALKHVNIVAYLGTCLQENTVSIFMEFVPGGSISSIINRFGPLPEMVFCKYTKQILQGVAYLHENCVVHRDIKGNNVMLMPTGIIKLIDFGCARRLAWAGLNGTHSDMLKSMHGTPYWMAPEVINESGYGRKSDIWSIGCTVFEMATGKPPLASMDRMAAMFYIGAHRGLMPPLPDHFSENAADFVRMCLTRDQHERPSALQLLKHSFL
Experimental: Solutions of a test compound, Crebtide (a substrate), a kinase, and ATP were prepared using 1×MAPK Buffer (50 mM HEPES, 1 mM EGTA, […], 10 mM MgCl2, 2 mM DTT, and 0.01% Tween 20).
To each well, the test compound (1 μL) was first added (in duplicate) to reach a final concentration of 1 μM or 1×IC50 of the compound. The kinase (5 μl) was then added to each well to reach a final concentration of […] for the kinase domain or […] for the full-length domain. Each plate included a positive and negative controls in duplicate wells. Crebtide (2.5 μL) was then added to each well in duplicate to reach a final concentration of 50 nM. If the full-length kinase was used, the plates were incubated for 45 min at room temperature before proceeding further. ATP (2.5 μL) was added to each well to reach a final concentration of 1 μM for the kinase domain and 3 μM for the full-length.
After the addition of ATP, the plates were incubated for 45 min at room temperature. During the incubation, an EDTA solution (40 mM) and anti-Crebtide ([…]) were prepared. Additionally, a detection buffer stock solution was diluted ten fold before use.
After the incubation, the anti-Crebtide (5 μL) and EDTA (5 μL) were added to each well to reach their final concentrations of […] and 10 mM, respectively. The plates were allowed to develop at room temperature for 45 min. The plates were then read at 665 nm and 615 nm using Perkin Elmer Lance machine.
The biological results of inhibition of the kinase domain protein of RC kinase are summarized in Tables 2 and 3, wherein A represents at least 50% inhibition of the RC kinase activity at 1 μM; B represents no greater than 50% but at least 20% inhibition of the RC kinase activity at 1 μM; C represents no greater than 20% but at least 5% inhibition of the RC kinase activity at 1 μM; and D represents no greater than 5% inhibition of the RC kinase activity at 1 μM.

## N#Cc1c(Nc2cccc(Cl)c2)n[nH]c1/N=C/c1ccc(C(F)(F)F)cc1 [Compound A15, 3-((3-chlorophenyl)amino)-5-((4-(trifluoromethyl)benzylidene)amino)-1H-pyrazole-4-carbonitrile]
other
  melting point: 279 to 282 °C
[1]
  inhibition at 1 µM: 5 to 20%

## N#Cc1c(Nc2cccc(Cl)c2)n[nH]c1/N=C/c1ccc(OC(F)F)c(O)c1 [Compound A82]
other
  melting point: 164 to 176 °C
[1]
  inhibition at 1 µM: ≤ 5%

## NC(=O)c1c(Nc2cccc(Cl)c2)n[nH]c1/N=C/c1cc(Br)ccc1O [Compound B49, 5-((5-bromo-2-hydroxybenzylidene)amino)-3-((3-chlorophenyl)amino)-1H-pyrazole-4-carboxamide]
other
  melting point: 281 to 283 °C
[1]
  inhibition at 1 µM: 5 to 20%

## COc1ccccc1/C=N/c1[nH]nc(Nc2ccccc2)c1C#N [Compound A26]
other
  melting point: 202 to 206 °C
[1]
  inhibition at 1 µM: 5 to 20%

## N#Cc1c(Nc2cccc(Cl)c2)n[nH]c1/N=C/c1ccc(Cl)cc1 [Compound A12]
other
  melting point: 283 to 286 °C
[1]
  inhibition at 1 µM: 20 to 50%

## N#Cc1c(Nc2ccccc2)n[nH]c1/N=C/c1ccccc1 [Compound A9]
other
  melting point: 257 to 260 °C
[1]
  inhibition at 1 µM: 20 to 50%

## NC(=O)c1c(Nc2cccc(Cl)c2)n[nH]c1/N=C/c1ccc(O)cc1O [Compound B30]
other
  melting point: 220 to 225 °C
[1]
  inhibition at 1 µM: ≥ 50%

## COc1cccc(/C=N/c2[nH]nc(Nc3cccc(Cl)c3)c2C(N)=O)c1O [Compound B53]
other
  melting point: 271 to 274 °C
[1]
  inhibition at 1 µM: 5 to 20%

## NC(=O)c1c(Nc2ccccc2)n[nH]c1/N=C/c1ccc(Cl)cc1 [Compound B12]
other
  melting point: 291 to 293 °C
[1]
  inhibition at 1 µM: 5 to 20%

## N#Cc1c(NC2CC2)n[nH]c1/N=C/c1ccc(O)cc1 [Compound A48, 3-(cyclopropylamino)-5-((4-hydroxybenzylidene)amino)-1H-pyrazole-4-carbonitrile]
other
  melting point: 220 to 228 °C
[1]
  inhibition at 1 µM: ≤ 5%

## N#Cc1c(Nc2cccc(Cl)c2)n[nH]c1/N=C/c1ccc(-n2cncn2)cc1 [Compound A87]
other
  melting point: 284 to 288 °C
[1]
  inhibition at 1 µM: ≤ 5%

## COc1cc(/C=N/c2[nH]nc(Nc3cccc(Cl)c3)c2C(N)=O)ccc1O [Compound B7]
other
  melting point: 268 to 270 °C
[1]
  inhibition at 1 µM: ≥ 50%

## NC(=O)c1c(Nc2ccccc2Cl)n[nH]c1/N=C/c1ccc(O)c([N+](=O)[O-])c1 [Compound B113]
other
  melting point: 301 to 304 °C
[1]
  inhibition at 1 µM: 5 to 20%

## N#Cc1c(Nc2cccc(Cl)c2)n[nH]c1/N=C/c1ccccc1-c1cccs1 [Compound A81]
other
  melting point: 75 to 80 °C
[1]
  inhibition at 1 µM: 5 to 20%

## CS(=O)(=O)N1CCC(/C=N/c2[nH]nc(Nc3cccc(Cl)c3)c2C#N)CC1 [Compound A80]
other
  melting point: 102 to 105 °C
[1]
  inhibition at 1 µM: ≤ 5%

## NC(=O)c1c(Nc2cccnc2)n[nH]c1/N=C/c1ccc(O)cc1 [Compound B121, 5-((4-hydroxybenzylidene)amino)-3-(pyridin-3-ylamino)-1H-pyrazole-4-carboxamide]
other
  melting point: 306 to 309 °C
[1]
  inhibition at 1 µM: ≥ 50%

## N#Cc1c(Nc2cccc(Cl)c2)n[nH]c1/N=C/c1ccc(Oc2ccc(C(F)(F)F)cn2)cc1 [Compound A61]
other
  melting point: 264 to 268 °C
[1]
  inhibition at 1 µM: 5 to 20%

## N#Cc1c(Nc2cccc(Cl)c2)n[nH]c1/N=C/c1ccc(Cl)cc1O [Compound A91]
other
  melting point: 283 to 284 °C
[1]
  inhibition at 1 µM: ≤ 5%

## NC(=O)c1c(Nc2ccc(Cl)cc2)n[nH]c1/N=C/c1ccc(O)c([N+](=O)[O-])c1 [Compound B22]
other
  melting point: 295 to 297 °C
[1]
  inhibition at 1 µM: 20 to 50%

## N#Cc1c(Nc2ccccc2)n[nH]c1/N=C/c1cccc2ccccc12 [Compound A8]
other
  melting point: 259 to 263 °C
[1]
  inhibition at 1 µM: 5 to 20%

## Cc1cc(F)ccc1/C=N/c1[nH]nc(Nc2cccc(Cl)c2)c1C#N [Compound A99]
other
  melting point: 253 to 257 °C
[1]
  inhibition at 1 µM: 5 to 20%

## N#Cc1c(Nc2cccc(Cl)c2)n[nH]c1/N=C/C1CCCN1C(=O)OCc1ccccc1 (stereo not shown) [Compound A63]
other
  melting point: 65 to 72 °C
[1]
  inhibition at 1 µM: 5 to 20%

## CC(C)(C)c1ccc(Nc2n[nH]c(/N=C/c3ccc(Cl)cc3)c2C#N)cc1 [Compound A53]
other
  melting point: 288 to 290 °C
[1]
  inhibition at 1 µM: 5 to 20%

## N#Cc1c(Nc2cccc(Cl)c2)n[nH]c1/N=C/c1cccc(Oc2ncccn2)c1 [Compound A76]
other
  melting point: 234 to 239 °C
[1]
  inhibition at 1 µM: 5 to 20%

## N#Cc1c(Nc2cccnc2)n[nH]c1/N=C/c1ccc(O)cc1 [Compound A110]
other
  melting point: 311 to 314 °C
[1]
  inhibition at 1 µM: 20 to 50%

## COc1ccc(/C=N/c2[nH]nc(Nc3ccc(OC)cc3)c2C#N)cc1 [Compound A43]
other
  melting point: 246 to 250 °C
[1]
  inhibition at 1 µM: ≤ 5%

## N#Cc1c(Nc2cccc(Cl)c2)n[nH]c1/N=C/c1ccc(N2CCOCC2)nc1 [Compound A79]
other
  melting point: 273 to 279 °C
[1]
  inhibition at 1 µM: ≤ 5%

## N#Cc1c(Nc2cccc(Cl)c2)n[nH]c1/N=C/c1cc[nH]c1 [Compound A106]
other
  melting point: 240 to 248 °C
[1]
  inhibition at 1 µM: ≤ 5%

## N#Cc1c(Nc2ccccc2)n[nH]c1/N=C/c1ccc(O)c([N+](=O)[O-])c1 [Compound A10]
other
  melting point: 284 to 286 °C
[1]
  inhibition at 1 µM: 5 to 20%

## NC(=O)c1c(Nc2cccc(Cl)c2)n[nH]c1N=Cc1ccc(O)c([N+](=O)[O-])c1 [Compound B2, 3-((3-chlorophenyl)amino)-5-((4-hydroxy-3-nitrobenzylidene)amino)-1H-pyrazole-4-carboxamide]
other
  melting point: 296 to 298 °C
[1]
  inhibition at 1 µM: ≥ 50%

## COc1ccc(/C=N/c2[nH]nc(Nc3ccc(Cl)cc3)c2C(N)=O)cc1 [Compound B23]
other
  melting point: 313 to 315 °C
[1]
  inhibition at 1 µM: ≤ 5%

## N#Cc1c(Nc2ccccc2)n[nH]c1/N=C/c1ccc(Cl)cc1 [Compound A7]
other
  melting point: 276 to 278 °C
[1]
  inhibition at 1 µM: 5 to 20%

## COc1ccc(/C=N/c2[nH]nc(Nc3cccc(Cl)c3)c2C(N)=O)cc1 [Compound B122]
other
  melting point: 295 to 298 °C
[1]
  inhibition at 1 µM: 20 to 50%

## NC(=O)c1c(Nc2cccc(Cl)c2)n[nH]c1/N=C/c1ccc(Cl)cc1 [Compound B4, 5-((4-chlorobenzylidene)amino)-3-((3-chlorophenyl)amino)-1H-pyrazole-4-carboxamide]
other
  melting point: 303 to 305 °C
[1]
  inhibition at 1 µM: 5 to 20%

## N#Cc1c(Nc2ccc(Cl)cc2)n[nH]c1/N=C/c1ccc(Cl)cc1 [Compound A35]
other
  melting point: 296 to 300 °C
[1]
  inhibition at 1 µM: ≤ 5%

## COc1ccccc1/C=N/c1[nH]nc(Nc2cccc(Cl)c2)c1C(N)=O [Compound B18]
other
  melting point: 270 to 273 °C
[1]
  inhibition at 1 µM: 20 to 50%

## Cc1cc(C)cc(Nc2n[nH]c(/N=C/c3ccc(O)cc3)c2C#N)c1 [Compound A55]
[1]
  inhibition at 1 µM: 5 to 20%

## Cn1c(Cl)c(/C=N/c2[nH]nc(Nc3cccc(Cl)c3)c2C#N)c2ccccc21 [Compound A78]
[1]
  Activity (inhibition of the RC kinase activity): C (no greater than 20% but at least 5% inhibition of the RC kinase activity at 1 μM)

## CCc1nc(C)c(/C=N/c2[nH]nc(Nc3cccc(Cl)c3)c2C(N)=O)[nH]1 [Compound B70]
[1]
  Activity (inhibition of the RC kinase activity): B (no greater than 50% but at least 20% inhibition of the RC kinase activity at 1 μM)

## N#Cc1cc(/C=N/c2[nH]nc(Nc3cccc(Cl)c3)c2C(N)=O)ccc1F [Compound B87]
[1]
  inhibition at 1 µM: ≤ 5%
